Measurements published in patent US20160243136A1, “PHARMACEUTICAL FORMULATIONS CONTAINING MITOCHONDRIALLY TARGETED ANTIOXIDANTS” (Mitotech SA, priority 2013, published 2016).

Tests used:
[1] = test system: renal tubular cells (RTC); assay: In vitro inflammation model: renal tubular cells co-cultivated with bacterial lysate-activated leukocytes; format: cell-based, rat
Description: Kidneys from 1-3 day old rats were excised under aseptic conditions. The tissue was blended and dissociated by collagenase treatment (0.5%, 30 min at 37° C.). The final suspension was centrifuged for 5 min at 50 g. The pellet was resuspended in about 10 ml of DMEM/F12 (Gibco, USA) supplemented with 10% FCS (Gibco, USA) and kept for 2 min, after which the supernatant was transferred to another tube and the pellet was repeatedly resuspended. After 10 min, the renal tubules were pelleted and dissociated cells remaining in the suspension were discarded. The pellet was resuspended in DMEM/F12 with 10% FCS and seeded onto 24-well plates or onto coverslips placed in 35-mm glass-bottom Petri dishes.
E. coli strain No. 85 was cultured overnight in a cultivation medium containing 1% tryptone, 0.5% yeast extract and 1% NaCl (Sigma-Aldrich, USA). The medium, containing roughly 10^9 colony-forming units (CFU) per ml, was pelleted at 300 g for 3 min. The bacterial lysate was prepared by diluting 30 ml of an overnight (ON) culture and diluting the precipitate in 3 ml of 0.9% NaCl followed by autoclaving for 1.5 hr at 120° C.
5 ml heparinized blood collected from the jugular vein of adult male rats was carefully layered over 5 ml of Ficoll-Urografin (density of 1.077 g/cm^3), and centrifuged for 30 min at 200 g. This procedure results in erythrocyte pelleting, while the mononuclear fraction of leukocytes forms an interphase ring on the Ficoll surface, which was carefully collected. Leukocytes were transferred into another tube and centrifuged for 3 min at 200 g. The resultant pellet was resuspended in 5 ml of DMEM/F12. After cell counting in a hemocytometer, the cells were diluted to a final concentration of about 1×10^5 cells per ml.
In a two-day old renal cell culture, the medium was substituted with DMEM/F12 (400 μl per well, 1600 μl per dish), supplemented with (depending on the purpose): GSK-3β inhibitor LiCl (9 mM) (Sigma-Aldrich, USA), water-soluble antioxidant Trolox (50 μM, 100 μM) (Sigma-Aldrich, USA), MTAs 10-(6-plastoquinonyl)decyl-triphenylphosphonium (SkQ1), synthesized according to Antonenko et al. (2008) Biochemistry (Mosc) 73:1273-87), 10 nM, 100 nM), and 10-(6′-plastoquinonyl) decylrhodamine 19 SkQR1), synthesized according to Antonenko (2008), (1 nM, 10 nM, or 100 nM). Renal cells were incubated for 2 hr in this medium, followed by supplementation with leukocytes or neutrophils in DMEM/F12, or DMEM/F12, alone, in the control sample (400 μl per well, 1600 μl per dish). Simultaneously, the bacterial lysate or lipopolysaccharide (100 ng/ml, LPS, Sigma-Aldrich, USA) solution in DMEM/F12 and DMEM/F12 alone in the control sample (100 μl per well, 400 μl per dish) were added. Renal cells, leukocytes (neutrophils) were co-cultivated for 24 or 48 hr with bacterial lysate or LPS. Cell death (both necrotic and apoptotic) rate was evaluated using Annexin-V FITC Kit (Invitrogen, USA).
The ROS-sensitive fluorescent probe 2,7-DCF-DA (Molecular Probes, USA) dissolved in DMEM/F12 without bicarbonate (final concentration 10 μM) was added to renal cells (500 μl per well of 24-well plate, 2 ml per dish) and incubated for 15 min at 37° C. followed by a wash with DMEM/F12 without bicarbonate. MDA was determined as in (Mihara and Uchiyama (1978) Anal. Biochem. 86:271-8). Fluorescent probe, DAF-2-DA (Calbiochem, San Diego, Calif., USA) was used for NO determination in living cells. The procedure was the same as for 2,7-DCF-DA. The nitrite/nitrate concentration (as products of NO oxidation) in culture media was determined using Nitrite/Nitrate Assay Kit (Sigma-Aldrich, USA). TNFα was determined using the kit Rat TNFα ELISA Ready-SET-Go (Ebioscience, USA).
Renal cells were imaged with an LSM510 inverted confocal microscope (Carl Zeiss Inc., Jena, Germany) with excitation at 488 nm and emission collected at 500 nm-530 nm with a pinhole diameter of 150 μm. Images were processed using ImageJ software (NIH, Bethesda, Md., USA).

[2] = test system: Human endothelial cell line EA.hy926; assay: High-glucose endothelium damage, immunoblotting detection of VE-cadherin; format: cell-based; conditions: 2 nM and 20 nM SkQ1 pre-incubation 4 d; 45 mM D-glucose 2 d; vs vehicle control
Source text: Human endothelial cell line EA.hy926 (ATCC Collection; catalog number CRL-2922) was used as a model of the endothelium vessel damage occurring during inflammatory process and/or diabetes. This cell line is similar to primary HUVEC cell line (Edgell et al. (1983) PNAS, 80(12):3734-7; Edgell et al. (1990) In Vitro Cell Dev. Biol., 26(12):1167-72) and widely used as a relevant model for inflammation studies (Riesbeck et al. (1998) Clin. Vaccine Immunol., 5:5675-682).
Accordingly, human endothelial cells EA.hy926 were pre-incubated with 2 nM and 20 nM of SkQ1 solution in Dulbecco's Modified Eagle's Medium (DMEM) supplemented with 10% of fetal serum (Example 1) for 4 d. Cells were then incubated 2 d with DMEM medium containing 1% FBS and 5 mM D-glucose. The cells were then incubated 2 d with 45 mM D-glucose and were then used for immunoblotting detection of VE-cadherin.

CC1=C(C)C(=O)C(CCCCCCCCCC[P+](c2ccccc2)(c2ccccc2)c2ccccc2)=CC1=O [SkQ1, 10-(6-plastoquinonyl)decyl-triphenylphosphonium]
ROS production in renal cells (DCF fluorescence) ([1]; 10 nM, pretreatment 2 hr, co-cultivation with activated leukocytes): suppression of ROS production after co-cultivation with activated leukocytes to levels close to those observed on controls
renal cell death (Annexin V-positive) ([1]; 48 hr exposure to activated leukocytes, pre-incubation with drug): more pronounced than that afforded by the traditional water-soluble antioxidant, Trolox
VE-cadherin downregulation induced by high glucose [2]: prevents
